Assay results: ChEMBL document CHEMBL1157927, “Identification and structure-activity relationship of 8-hydroxy-quinoline-7-carboxylic acid derivatives as inhibitors of Pim-1 kinase” (Bioorg Med Chem Lett, 2010)

Key:
[1] = biological target: T1, Serine/threonine-protein kinase pim-1 (Homo sapiens, UniProt P11309); experiment: Inhibition of PIM1
Target sequence in this assay (P11309 whole entry): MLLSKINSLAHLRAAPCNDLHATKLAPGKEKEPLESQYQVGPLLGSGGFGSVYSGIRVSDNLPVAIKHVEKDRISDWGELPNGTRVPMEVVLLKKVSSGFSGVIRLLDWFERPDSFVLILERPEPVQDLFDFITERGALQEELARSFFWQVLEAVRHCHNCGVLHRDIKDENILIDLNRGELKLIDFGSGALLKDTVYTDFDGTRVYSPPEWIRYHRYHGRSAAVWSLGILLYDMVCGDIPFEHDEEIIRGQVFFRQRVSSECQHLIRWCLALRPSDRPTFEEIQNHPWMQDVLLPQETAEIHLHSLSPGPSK

[2] = biological target: T1, Serine/threonine-protein kinase pim-1; experiment: Inhibition of PIM1 at 10 uM
Target sequence in this assay (P11309 whole entry, looked up): as the sequence (P11309 whole entry) above

[3] = biological target: Glycogen synthase kinase-3 (Homo sapiens, UniProt P49840+P49841); experiment: Inhibition of GSK3alpha/beta; format: protein assay
[4] = biological target: Cyclin-dependent kinase 1/cyclin B1 (Homo sapiens, UniProt P06493); experiment: Inhibition of CDK1/cyclin B; format: protein-complex assay
Chain of Cyclin-dependent kinase 1/cyclin B1 (P06493 whole entry): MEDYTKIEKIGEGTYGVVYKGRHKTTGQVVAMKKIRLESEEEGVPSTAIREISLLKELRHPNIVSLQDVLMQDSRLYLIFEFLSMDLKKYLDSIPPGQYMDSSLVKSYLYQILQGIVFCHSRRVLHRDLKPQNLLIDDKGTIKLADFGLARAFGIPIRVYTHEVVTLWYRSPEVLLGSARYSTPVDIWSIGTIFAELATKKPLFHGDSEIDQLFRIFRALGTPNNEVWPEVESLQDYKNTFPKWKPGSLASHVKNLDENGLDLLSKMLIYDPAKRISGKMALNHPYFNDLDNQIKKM
Chain of Cyclin-dependent kinase 1/cyclin B1 (P14635 whole entry, further chain): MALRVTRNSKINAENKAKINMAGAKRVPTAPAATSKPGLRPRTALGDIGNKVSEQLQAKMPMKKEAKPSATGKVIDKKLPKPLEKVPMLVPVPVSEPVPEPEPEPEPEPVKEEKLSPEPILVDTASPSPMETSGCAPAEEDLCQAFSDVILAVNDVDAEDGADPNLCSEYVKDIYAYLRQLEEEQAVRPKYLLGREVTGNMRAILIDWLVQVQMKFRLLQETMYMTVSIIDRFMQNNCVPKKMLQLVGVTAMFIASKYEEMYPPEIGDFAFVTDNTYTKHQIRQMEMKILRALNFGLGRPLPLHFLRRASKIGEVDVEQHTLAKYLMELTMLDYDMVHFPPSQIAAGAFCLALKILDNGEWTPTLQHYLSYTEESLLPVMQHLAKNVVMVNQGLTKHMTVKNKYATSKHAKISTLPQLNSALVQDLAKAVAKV

CDK1/Cyclin A = CDK1/Cyclin A (Homo sapiens, UniProt P06493); experiment: Inhibition of CDK1/Cyclin A; format: protein-complex assay
Chain of CDK1/Cyclin A (P06493 whole entry): as the sequence (P06493 whole entry) above
Chain of CDK1/Cyclin A (P20248 whole entry, further chain): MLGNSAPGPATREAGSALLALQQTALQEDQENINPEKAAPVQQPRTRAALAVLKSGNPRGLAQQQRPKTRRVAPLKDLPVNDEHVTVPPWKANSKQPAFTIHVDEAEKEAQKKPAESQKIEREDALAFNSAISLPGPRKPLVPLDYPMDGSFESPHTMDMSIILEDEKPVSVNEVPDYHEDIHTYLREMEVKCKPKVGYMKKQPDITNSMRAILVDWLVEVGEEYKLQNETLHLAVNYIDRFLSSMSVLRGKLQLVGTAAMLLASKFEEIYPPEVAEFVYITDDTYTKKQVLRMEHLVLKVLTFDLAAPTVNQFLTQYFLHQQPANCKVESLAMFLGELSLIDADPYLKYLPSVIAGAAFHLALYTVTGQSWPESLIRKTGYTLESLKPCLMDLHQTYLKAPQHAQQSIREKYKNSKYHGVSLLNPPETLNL

[5] = biological target: Cyclin-dependent kinase 5/CDK5 activator 1 (Homo sapiens, UniProt Q00535); experiment: Inhibition of CDK5/P25; format: protein-complex assay
Chain of Cyclin-dependent kinase 5/CDK5 activator 1 (Q00535 whole entry, canonical isoform): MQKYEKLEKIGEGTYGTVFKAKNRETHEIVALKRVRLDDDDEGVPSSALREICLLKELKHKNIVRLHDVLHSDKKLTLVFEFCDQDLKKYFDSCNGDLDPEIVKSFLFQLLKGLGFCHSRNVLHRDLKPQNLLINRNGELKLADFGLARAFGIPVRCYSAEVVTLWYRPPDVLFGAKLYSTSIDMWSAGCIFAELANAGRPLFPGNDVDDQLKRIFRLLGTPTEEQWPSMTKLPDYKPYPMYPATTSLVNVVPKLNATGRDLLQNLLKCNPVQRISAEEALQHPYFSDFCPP
Chain of Cyclin-dependent kinase 5/CDK5 activator 1 (Q15078 whole entry, further chain, canonical isoform): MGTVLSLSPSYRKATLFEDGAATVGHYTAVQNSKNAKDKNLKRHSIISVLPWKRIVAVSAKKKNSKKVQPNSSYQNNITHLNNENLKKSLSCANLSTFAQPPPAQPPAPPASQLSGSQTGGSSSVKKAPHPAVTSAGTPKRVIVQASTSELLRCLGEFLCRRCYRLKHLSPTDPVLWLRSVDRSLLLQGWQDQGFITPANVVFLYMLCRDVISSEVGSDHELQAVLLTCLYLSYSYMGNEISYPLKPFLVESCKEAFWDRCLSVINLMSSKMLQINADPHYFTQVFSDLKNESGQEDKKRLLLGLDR

[6] = biological target: Casein kinase I isoform alpha (Homo sapiens, UniProt P48729); experiment: Inhibition of CK1
Chain of Casein kinase I isoform alpha (P48729 whole entry, canonical isoform): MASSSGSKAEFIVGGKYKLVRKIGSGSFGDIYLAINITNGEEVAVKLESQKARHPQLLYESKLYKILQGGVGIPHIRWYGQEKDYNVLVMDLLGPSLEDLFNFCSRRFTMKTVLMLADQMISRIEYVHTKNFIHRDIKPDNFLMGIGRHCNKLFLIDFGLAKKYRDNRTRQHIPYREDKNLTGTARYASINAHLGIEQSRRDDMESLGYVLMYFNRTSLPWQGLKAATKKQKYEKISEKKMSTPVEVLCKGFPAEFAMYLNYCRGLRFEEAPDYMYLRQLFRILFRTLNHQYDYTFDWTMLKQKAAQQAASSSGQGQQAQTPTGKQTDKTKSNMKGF

[7] = biological target: Dual specificity tyrosine-phosphorylation-regulated kinase 1A (Mus musculus, UniProt Q61214); experiment: Inhibition of mouse DYRK1A expressed in Escherichia coli after 20 mins
[8] = biological target: T2, Dual specificity tyrosine-phosphorylation-regulated kinase 2 (Homo sapiens, UniProt Q92630); experiment: Inhibition of DYRK2
T2 sequence (Q92630 whole entry): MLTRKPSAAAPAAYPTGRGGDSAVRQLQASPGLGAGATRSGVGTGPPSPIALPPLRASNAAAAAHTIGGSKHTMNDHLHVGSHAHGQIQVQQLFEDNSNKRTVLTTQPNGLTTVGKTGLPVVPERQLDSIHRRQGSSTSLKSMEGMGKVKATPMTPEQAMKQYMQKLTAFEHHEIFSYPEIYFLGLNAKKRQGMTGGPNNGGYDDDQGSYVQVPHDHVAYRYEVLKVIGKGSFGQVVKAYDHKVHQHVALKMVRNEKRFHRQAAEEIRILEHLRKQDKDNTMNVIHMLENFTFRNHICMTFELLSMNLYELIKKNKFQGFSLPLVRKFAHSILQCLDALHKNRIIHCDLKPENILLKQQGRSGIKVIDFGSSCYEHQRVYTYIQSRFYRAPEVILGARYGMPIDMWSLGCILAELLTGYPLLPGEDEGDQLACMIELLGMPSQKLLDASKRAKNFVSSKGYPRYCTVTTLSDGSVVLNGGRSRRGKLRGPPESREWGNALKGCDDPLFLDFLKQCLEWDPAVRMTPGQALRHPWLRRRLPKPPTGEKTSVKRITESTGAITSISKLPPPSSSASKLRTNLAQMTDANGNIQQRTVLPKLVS

[9] = biological target: Dual specificity protein kinase CLK1 (Homo sapiens, UniProt P49759); experiment: Inhibition of CLK1
Chain of Dual specificity protein kinase CLK1 (P49759 whole entry): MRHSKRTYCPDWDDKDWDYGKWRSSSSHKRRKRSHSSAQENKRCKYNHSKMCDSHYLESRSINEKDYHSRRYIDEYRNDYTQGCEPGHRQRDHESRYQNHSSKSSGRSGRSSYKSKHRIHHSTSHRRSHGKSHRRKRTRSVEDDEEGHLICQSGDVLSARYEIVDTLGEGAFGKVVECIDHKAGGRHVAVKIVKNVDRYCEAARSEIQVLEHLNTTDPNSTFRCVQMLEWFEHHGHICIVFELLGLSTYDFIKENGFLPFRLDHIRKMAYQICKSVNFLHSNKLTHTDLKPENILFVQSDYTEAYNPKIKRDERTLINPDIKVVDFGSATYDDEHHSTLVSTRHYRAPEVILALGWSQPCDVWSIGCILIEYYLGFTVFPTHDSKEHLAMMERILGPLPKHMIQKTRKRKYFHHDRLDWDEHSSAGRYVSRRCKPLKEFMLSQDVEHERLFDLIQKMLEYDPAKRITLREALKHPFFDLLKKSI

Row | IC50 [1] [µM] | inhibition [2] [%] | SMILES | also measured
1 | 0.5 |  | O=C(O)c1ccc2ccc(/C=C/c3ccc(O)cc3O)nc2c1O | 
2 | 1 |  | O=C(Nc1ccc(O)c(O)c1)Nc1ccc2ccc(C(=O)O)c(O)c2n1 | 
3 | 1 |  | COc1cc(NC(=O)c2ccc3ccc(C(=O)O)c(O)c3n2)cc(O)c1O | 
4 | 4.5 |  | COc1cc(/C=C/c2ccc3ccc(C(=O)O)c(O)c3n2)cc(Cl)c1O | 
5 | 3.4 |  | O=C(O)c1ccc2ccc(/C=C/c3ccc([N+](=O)[O-])cc3)nc2c1O | 
6 | > 10 | > 50 | Oc1ccc(/C=C/c2ccc3cccc(O)c3n2)cc1O | 
7 | 3 |  | O=C(O)c1ccc2ccc(/C=C/c3ccc4c(c3)OCO4)nc2c1O | 
8 | 2.1 | > 50 | O=C(NCc1ccc(O)c(O)c1)c1ccc2ccc(C(=O)O)c(O)c2n1 | 
9 | > 10 | > 50 | Cc1ccc2cccc(C(=O)O)c2n1 | 
10 | 3.2 |  | O=C(O)c1ccc2ccc(/C=C/c3ccccc3)nc2c1O | 
11 | > 10 | > 50 | Cc1ccc2ccc(C(=O)O)c(O)c2n1 | 
12 | 1.7 | > 50 | O=C(O)c1ccc2ccc(/C=C/c3ccc(O)c(O)c3)nc2c1O | 
13 | 7 |  | O=C(O)c1ccc2ccc(/C=C/c3cccc(O)c3O)nc2c1O | 
14 | 3.1 |  | COc1cc(/C=C/c2ccc3ccc(C(=O)O)c(O)c3n2)cc(O)c1O | 
15 | 4.5 |  | O=C(O)c1ccc2ccc(/C=C/c3ccc(F)c(F)c3)nc2c1O | 
16 | > 10 | > 50 | O=C(O)c1cccc2ccc(/C=C/c3ccc(O)c(O)c3)nc12 | 
17 | 2.8 |  | COc1cc(/C=C/c2ccc3ccc(C(=O)O)c(O)c3n2)cc([N+](=O)[O-])c1O | 
18 | 2 |  | COc1cc(/C=C/c2ccc3ccc(C(=O)O)c(O)c3n2)ccc1O | 
19 | 0.2 |  | O=C(NCc1ccc(O)cc1O)c1ccc2ccc(C(=O)O)c(O)c2n1 | IC50 [3]: > 10 µM; IC50 [4]: > 10 µM; IC50 (CDK1/Cyclin A): > 10 µM; IC50 [5]: > 10 µM; IC50 [6]: > 10 µM; IC50 [7]: 4.5 µM; IC50 [8]: 6.3 µM; IC50 [9]: > 10 µM
20 | 4 |  | Nc1ccc(/C=C/c2ccc3ccc(C(=O)O)c(O)c3n2)cc1 | 
21 | 2 |  | COc1ccc(CNC(=O)Nc2ccc3ccc(C(=O)O)c(O)c3n2)cc1 | 

Row | IC50 [1] [µM] | inhibition [2] [%] | SMILES | also measured
22 | > 10 | < 50 | O=C(O)c1ccc(O)c2nc(/C=C/c3ccc(O)c(O)c3)ccc12 | 
23 | 5.5 |  | O=C(O)c1ccc2ccc(/C=C/c3cc(O)c(O)c(O)c3)nc2c1O | 
24 | 2.1 |  | O=C(O)c1ccc2ccc(/C=C/c3cc(Br)c(O)c(Br)c3)nc2c1O | 
25 | 0.4 |  | O=C(O)c1ccc2ccc(/C=C/c3cc(O)cc(O)c3)nc2c1O | 
26 | 3 |  | O=C(NNc1ccc([N+](=O)[O-])cc1[N+](=O)[O-])c1ccc2ccc(C(=O)O)c(O)c2n1 | 
27 | 0.6 |  | O=C(NCc1cc(O)cc(O)c1)c1ccc2ccc(C(=O)O)c(O)c2n1 | 
28 | 0.7 |  | O=C(O)c1ccc2ccc(/C=C/c3ccc(O)cc3)nc2c1O | 
29 | 3.3 |  | COc1cc(CNC(=O)c2ccc3ccc(C(=O)O)c(O)c3n2)cc(O)c1O | 
30 | 2.8 |  | O=C(NCc1cccc(O)c1O)c1ccc2ccc(C(=O)O)c(O)c2n1 | 
31 | 3.1 |  | O=C(O)c1cc(/C=C/c2ccc3ccc(C(=O)O)c(O)c3n2)ccc1O | 
32 | 0.5 |  | O=C(NCc1ccc(O)c(O)c1)Nc1ccc2ccc(C(=O)O)c(O)c2n1 | 
33 | > 10 | > 50 | O=C(NCc1ccc(O)cc1)c1ccc2cccc(C(=O)O)c2n1 | 
34 | 0.5 |  | COc1ccc(/C=C/c2ccc3ccc(C(=O)O)c(O)c3n2)cc1O | IC50 [3]: > 10 µM; IC50 [4]: > 10 µM; IC50 (CDK1/Cyclin A): > 10 µM; IC50 [5]: > 10 µM; IC50 [6]: > 10 µM; IC50 [7]: 1.3 µM; IC50 [8]: 1.1 µM; IC50 [9]: 8.3 µM
35 | 5 | > 50 | O=C(O)c1ccc2ccc(CCc3ccc(O)c(O)c3)nc2c1O | 
36 | 5.1 |  | O=C(NNc1ccccc1)c1ccc2ccc(C(=O)O)c(O)c2n1 | 
37 | > 10 | > 50 | Cc1ccc2cccc(NS(C)(=O)=O)c2n1 | 
38 | > 10 | > 50 | O=C(NCc1ccc(O)c(O)c1)c1ccc2c(Cl)cc(Cl)c(O)c2n1 | 
39 | 2.5 |  | COc1cc(/C=C/c2ccc3ccc(C(=O)O)c(O)c3n2)cc(OC)c1O | 
40 | > 10 | > 50 | Cc1ccc2c(-c3ccccc3)cc(C(=O)O)c(O)c2n1 | 
41 | > 10 | < 50 | O=C(c1ccncc1)c1ccc2ccc(/C=C/c3ccc(O)c(O)c3)nc2c1O | 
